# Species on record: Rattus norvegicus
# Assay: Open TG-GATES - Regimen: Daily Repeat
# Assay type: toxicity, organism-based, Sprague-Dawley
# Parameters: regimen Daily Repeat, gender Male, age 6 weeks
# Conditions: in vivo, po, 0 mg/kg, route gavage, dose level Control; for APTT / Bas / Eos / Fbg / Hb / Ht / Lym / MCH / MCHC / MCV / Mono / Neu / PT / Plat / RBC / Ret / WBC: tissue Blood; for KIDNEY_L / KIDNEY_R / KIDNEY_TOTAL: tissue Kidney; for LIVER: tissue Liver; for A/G / ALP / ALT / AST / BUN / CRE / Ca / Cl / DBIL / GLC / IP / K / LDH / Na / PL / RALB / TBIL / TC / TG / TP / gamma-GTP: tissue Plasma
compound,measurement,setting,value
CC(=O)Nc1ccc2c(c1)Cc1ccccc1-2 [2-ACETYLAMINOFLUORENE],TERMINAL_BW,"72 h, time 3 day",245.3 g
same,APTT,"72 h, time 3 day",19.9 s
same,Bas,"72 h, time 3 day",1%
same,Eos,"72 h, time 3 day",1.2%
same,Fbg,"72 h, time 3 day",227.2 mg/dL
same,Hb,"72 h, time 3 day",14 g/dL
same,Ht,"72 h, time 3 day",40.4%
same,Lym,"72 h, time 3 day",82.2%
same,MCH,"72 h, time 3 day",21.5 pg
same,MCHC,"72 h, time 3 day",34.6%
same,MCV,"72 h, time 3 day",62.3 fL
same,Mono,"72 h, time 3 day",3%
same,Neu,"72 h, time 3 day",12.6%
same,PT,"72 h, time 3 day",11.3 s
same,Plat,"72 h, time 3 day",127 x10_4/uL
same,RBC,"72 h, time 3 day",648.4 x10_4/ul
same,Ret,"72 h, time 3 day",5.8%
same,WBC,"72 h, time 3 day",105.6 x10_2/uL
same,KIDNEY_L,"72 h, time 3 day",1.1 g
same,KIDNEY_R,"72 h, time 3 day",1.1 g
same,KIDNEY_TOTAL,"72 h, time 3 day",2.2 g
same,LIVER,"72 h, time 3 day",12.2 g
same,A/G,"72 h, time 3 day",1.6
same,ALP,"72 h, time 3 day",913.6 IU/L
same,ALT,"72 h, time 3 day",38.2 IU/L
same,AST,"72 h, time 3 day",73.2 IU/L
same,BUN,"72 h, time 3 day",15.2 mg/dL
same,CRE,"72 h, time 3 day",0.5 mg/dL
same,Ca,"72 h, time 3 day",11 mg/dL
same,Cl,"72 h, time 3 day",101.8 meq/L
same,DBIL,"72 h, time 3 day",0.1 mg/dL
same,GLC,"72 h, time 3 day",208.4 mg/dL
same,IP,"72 h, time 3 day",8 mg/dL
same,K,"72 h, time 3 day",4.1 meq/L
same,LDH,"72 h, time 3 day",217.2 IU/L
same,Na,"72 h, time 3 day",141.2 meq/L
same,PL,"72 h, time 3 day",163 mg/dL
same,RALB,"72 h, time 3 day",3.6 g/dL
same,TBIL,"72 h, time 3 day",0.2 mg/dL
same,TC,"72 h, time 3 day",81.8 mg/dL
same,TG,"72 h, time 3 day",104.6 mg/dL
same,TP,"72 h, time 3 day",5.8 g/dL
same,gamma-GTP,"72 h, time 3 day",1.2 IU/L
same,TERMINAL_BW,"[…], time 7 day",278.1 g
same,TERMINAL_BW,"[…], time 14 day",334.5 g
same,TERMINAL_BW,"[…], time 28 day",417 g
same,APTT,"[…], time 7 day",19.7 s
same,Bas,"[…], time 7 day",0.4%
same,Eos,"[…], time 7 day",1%
same,Fbg,"[…], time 7 day",242 mg/dL
same,Hb,"[…], time 7 day",14.1 g/dL
same,Ht,"[…], time 7 day",39.9%
same,Lym,"[…], time 7 day",82.8%
same,MCH,"[…], time 7 day",21.9 pg
same,MCHC,"[…], time 7 day",35.2%
same,MCV,"[…], time 7 day",62.1 fL
same,Mono,"[…], time 7 day",2.4%
same,Neu,"[…], time 7 day",13%
same,PT,"[…], time 7 day",11.7 s
same,Plat,"[…], time 7 day",138.4 x10_4/uL
same,RBC,"[…], time 7 day",643 x10_4/ul
same,Ret,"[…], time 7 day",5.6%
same,WBC,"[…], time 7 day",114.7 x10_2/uL
same,APTT,"[…], time 14 day",21 s
same,Bas,"[…], time 14 day",0.8%
same,Eos,"[…], time 14 day",1%
same,Fbg,"[…], time 14 day",225.8 mg/dL
same,Hb,"[…], time 14 day",14.7 g/dL
same,Ht,"[…], time 14 day",42.3%
same,Lym,"[…], time 14 day",82.8%
same,MCH,"[…], time 14 day",20.5 pg
same,MCHC,"[…], time 14 day",34.7%
same,MCV,"[…], time 14 day",59 fL
same,Mono,"[…], time 14 day",2.2%
same,Neu,"[…], time 14 day",12.6%
same,PT,"[…], time 14 day",11.8 s
same,Plat,"[…], time 14 day",117.3 x10_4/uL
same,RBC,"[…], time 14 day",716.4 x10_4/ul
same,Ret,"[…], time 14 day",4%
same,WBC,"[…], time 14 day",96.8 x10_2/uL
same,APTT,"[…], time 28 day",20.8 s
same,Bas,"[…], time 28 day",0.8%
same,Eos,"[…], time 28 day",1%
same,Fbg,"[…], time 28 day",215.8 mg/dL
same,Hb,"[…], time 28 day",14.9 g/dL
same,Ht,"[…], time 28 day",43%
same,Lym,"[…], time 28 day",82.4%
same,MCH,"[…], time 28 day",19.8 pg
same,MCHC,"[…], time 28 day",34.7%
same,MCV,"[…], time 28 day",57.1 fL
same,Mono,"[…], time 28 day",2.2%
same,Neu,"[…], time 28 day",13.2%
same,PT,"[…], time 28 day",11.6 s
same,Plat,"[…], time 28 day",104.4 x10_4/uL
same,RBC,"[…], time 28 day",752.2 x10_4/ul
same,Ret,"[…], time 28 day",2.6%
same,WBC,"[…], time 28 day",122.5 x10_2/uL
same,KIDNEY_L,"[…], time 7 day",1.2 g
same,KIDNEY_R,"[…], time 7 day",1.2 g
same,KIDNEY_TOTAL,"[…], time 7 day",2.4 g
same,KIDNEY_L,"[…], time 14 day",1.3 g
same,KIDNEY_R,"[…], time 14 day",1.3 g
same,KIDNEY_TOTAL,"[…], time 14 day",2.6 g
same,KIDNEY_L,"[…], time 28 day",1.5 g
same,KIDNEY_R,"[…], time 28 day",1.5 g
same,KIDNEY_TOTAL,"[…], time 28 day",3 g
same,LIVER,"[…], time 7 day",12.4 g
same,LIVER,"[…], time 14 day",14.9 g
same,LIVER,"[…], time 28 day",16.7 g
same,A/G,"[…], time 7 day",1.4
same,ALP,"[…], time 7 day",914.8 IU/L
same,ALT,"[…], time 7 day",35.8 IU/L
same,AST,"[…], time 7 day",65 IU/L
same,BUN,"[…], time 7 day",13.6 mg/dL
same,CRE,"[…], time 7 day",0.4 mg/dL
same,Ca,"[…], time 7 day",10.7 mg/dL
same,Cl,"[…], time 7 day",103.2 meq/L
same,DBIL,"[…], time 7 day",0.076 mg/dL
same,GLC,"[…], time 7 day",201.2 mg/dL
same,IP,"[…], time 7 day",7.5 mg/dL
same,K,"[…], time 7 day",4.1 meq/L
same,LDH,"[…], time 7 day",188 IU/L
same,Na,"[…], time 7 day",140.4 meq/L
same,PL,"[…], time 7 day",136.4 mg/dL
same,RALB,"[…], time 7 day",3.4 g/dL
same,TBIL,"[…], time 7 day",0.1 mg/dL
same,TC,"[…], time 7 day",64.8 mg/dL
same,TG,"[…], time 7 day",96.2 mg/dL
same,TP,"[…], time 7 day",5.7 g/dL
same,gamma-GTP,"[…], time 7 day",1.4 IU/L
same,A/G,"[…], time 14 day",1.4
same,ALP,"[…], time 14 day",880.2 IU/L
same,ALT,"[…], time 14 day",35 IU/L
same,AST,"[…], time 14 day",64.4 IU/L
same,BUN,"[…], time 14 day",15.4 mg/dL
same,CRE,"[…], time 14 day",0.5 mg/dL
same,Ca,"[…], time 14 day",10.7 mg/dL
same,Cl,"[…], time 14 day",103.4 meq/L
same,DBIL,"[…], time 14 day",0.1 mg/dL
same,GLC,"[…], time 14 day",196.2 mg/dL
same,IP,"[…], time 14 day",7.3 mg/dL
same,K,"[…], time 14 day",4.1 meq/L
same,LDH,"[…], time 14 day",169.6 IU/L
same,Na,"[…], time 14 day",141.6 meq/L
same,PL,"[…], time 14 day",143.2 mg/dL
same,RALB,"[…], time 14 day",3.5 g/dL
same,TBIL,"[…], time 14 day",0.2 mg/dL
same,TC,"[…], time 14 day",69.6 mg/dL
same,TG,"[…], time 14 day",138 mg/dL
same,TP,"[…], time 14 day",5.9 g/dL
same,gamma-GTP,"[…], time 14 day",1.2 IU/L
same,A/G,"[…], time 28 day",1.4
same,ALP,"[…], time 28 day",611.4 IU/L
same,ALT,"[…], time 28 day",30.8 IU/L
same,AST,"[…], time 28 day",61.8 IU/L
same,BUN,"[…], time 28 day",19 mg/dL
same,CRE,"[…], time 28 day",0.4 mg/dL
same,Ca,"[…], time 28 day",10.4 mg/dL
same,Cl,"[…], time 28 day",102.4 meq/L
same,DBIL,"[…], time 28 day",0.092 mg/dL
same,GLC,"[…], time 28 day",265 mg/dL
same,IP,"[…], time 28 day",7.2 mg/dL
same,K,"[…], time 28 day",3.8 meq/L
same,LDH,"[…], time 28 day",194.4 IU/L
same,Na,"[…], time 28 day",140.4 meq/L
same,PL,"[…], time 28 day",143.4 mg/dL
same,RALB,"[…], time 28 day",3.4 g/dL
same,TBIL,"[…], time 28 day",0.1 mg/dL
same,TC,"[…], time 28 day",69.8 mg/dL
same,TG,"[…], time 28 day",107.8 mg/dL
same,TP,"[…], time 28 day",5.8 g/dL
same,gamma-GTP,"[…], time 28 day",1 IU/L

# Source: ChEMBL document CHEMBL3885861, “Open TG-GATES”
